“Also recorded” adds a separate entry of the source.

Here are results for 1 molecule from patent US7838695B2, “Neuroactive substance and uses of one such substance” (Universite de Nantes, priority 2003, dated 2010).

Test [1] has as its system low voltage activated calcium channels (LVA). Description: Overall LVA calcium current in DUM neurons (patch-clamp). Conditions: +50 mV depolarising pulse from −100 mV reference potential. It is filed as cell-based, Periplaneta americana.
Test [2] has as its system transient LVA calcium channels (tLVA). Nature of the test: tLVA calcium current in DUM neurons (overall LVA minus mLVA). The test is classed as cell-based, Periplaneta americana.
Test [3] relates to cockroach DUM neurons. Description: Spontaneous pacemaker electrical activity of DUM neurons (whole cell patch-clamp). It is filed as cell-based, Periplaneta americana. The protocol:
(§1) A second experiment was conducted on dorsal unpaired median neurons (DUM neurons) from the central nervous system of cockroaches (Periplaneta americana). In particular, these neurons secrete a biogenous amine, octopamine, a neuromediator wherein the chemical structure is similar to […] in vertebrates. They represent a good study model as they display electrophysiological properties similar to those of dopaminergic neurons in vertebrates. These DUM neurons are isolated from the medio-dorsal line of the last terminal abdominal ganglion of the nerve chain of adult male cockroaches, by means of enzyme digestion and mechanical dissociation, according to the technique described by […] et al (J. Exp. Biol., 1989, 144; 535-549). The neurons isolated in this way are kept in culture at 29° C. for 24 hrs before testing. The whole cell configuration patch-clamp technique is used to measure the electrical activity and the calcium currents (imposed potential and/or current conditions) according to the model described by Grolleau and […]. Neurophysiol. 1995, 73; 160-171).
(In general: In patch-clamp work, channel activity is measured electrically.)

For test [4], the system named is cockroach DUM neurons. Nature of the test: Electrical activity of DUM neurons activated by injecting depolarising current. The test is classed as cell-based, Periplaneta americana. The protocol: as §1, with “160-171). Experiments were also conducted on an electrical activity activated by injecting a level of depolarising current controlled in amplitude and duration (FIG. 6). The results obtained under these conditions are in agreement with the experiments conducted on spontaneous activity. […]” for “160-171).”

In test [5] the test system is axonal cockroach sodium and potassium channels. Description: Isolated giant axon under imposed potential and imposed current. It is filed as cell-based, Periplaneta americana. The protocol:
Firstly, the neuronal sodium and potassium channels were studied. These channels are involved in action potential generation. This study was conducted on cockroach (Periplaneta americana) giant axons. The giant axon of these cockroaches was isolated in ventral abdominal nerve chain connective tissue. During the experiment, the axon is immersed in physiological fluid. The experiment is performed under imposed potential and imposed current in the absence and presence of the substance according to formula (II).

Test [6] concerns high voltage activated calcium channels (HVA). Description: HVA calcium current in DUM neurons (patch-clamp). It is filed as cell-based, Periplaneta americana.
In test [7] the test system is maintained LVA calcium channels (mLVA). Nature of the test: mLVA calcium current in DUM neurons in the presence of nickel chloride (patch-clamp). Conditions: in the presence of 100 μm nickel chloride. The test is classed as cell-based, Periplaneta americana.
Test [8] relates to Phormia terrae novae larvae. Description: Neuroactivity test by injection in Diptera larvae. It is filed as in vivo. The protocol: The neuroactivity of the substance according to formula (I) was then tested by injecting in Diptera larvae. Within this scope, the inventors used Phormia terrae novae species Cyloraphe larvae at larval stage III, just before the imago stage enabling metamorphosis to a pupa or nymph. […] The product is injected using a precision micro-syringe fitted with a bevelled hypodermic needle. The needle is inserted into the last abdominal segment of the animal on the dorsal side. The injection is deemed successful if the larva is still mobile at the tip of the needle. In this type of test, contraction or relaxation for at least 5 seconds is defined as a positive response, but the intensity and duration are dose-dependent while the absence of any symptom for 10 min represents a negative response. Substance (II) was tested by injecting a single 350 μg dose of product per larva (mean larva weight 70 mg), by injecting 7 A1 of a 50 mg/ml solution of the product in the 85-15 v/v water:DMSO mixture. This concentration was then diluted by half until no larval activity was detected.

For `CC(=O)O[C@@H]1CC[C@@]23O[C@@H]2[C@H](O)C[C@@H](C)[C@]3(C)[C@@H]1C(C)=O` [substance according to formula (II), 6S-acetyl-4R,5R-dimethyl-1R(10S)-epoxy-2R-hydroxy-7R-acetoxydecahydronaphthalene], the “maintained component measured at the end of the depolarising pulse” value in test [1] is “not affected”. For the same molecule, the “increase of amplitude of the overall LVA calcium current” value in test [1] (n=7) amounted to 81%. Further, the “action on tLVA calcium channel” value in test [2] is “specific activator; also recorded: specific action; also recorded: potentiating”. Besides, in the test with cockroach DUM neurons [3] (4-AP 2 mM), the action potential amplitude entry is reported as “remains unchanged”, the post-hyperpolarisation phase result was “increased” and the pre-depolarisation slope result is “higher”. Moreover, the “action potential frequency increased by a factor” value with cockroach DUM neurons [3] (100 μm substance, in the presence of 4-AP 2 mM) is 2.1. Moreover, in the test on cockroach DUM neurons [4], the “action potential amplitude or duration” value was “No change” and the discharge frequency entry is recorded as “increase in the discharge frequency”. Besides, in test [5], the “activity on axonal sodium and potassium channels (change on the action potential)” value is reported as “no activity”. Also, the “reduction of HVA calcium current amplitude” value in test [6] (+90 mV depolarising pulse from −100 mV reference potential, n=7) is reported as 9%. Besides, the “amplitude of the HVA current” value in test [6] (in the presence of 100 μm nickel chloride) is “neither the amplitude of the mLVA current (FIGS. 10 and 11) or that of HVA are modified”. Besides, the “amplitude of the mLVA current” value in test [7] is “neither the amplitude of the mLVA current (FIGS. 10 and 11) or that of HVA are modified”. Also, in test [8] (calculated with molecular weight 296 g per mole), the MAC entry is “approximately 1 mM/mg of larvae”. In addition, in test [8] (injection into larvae, halving dilutions until no larval activity), the “minimum active concentration on diptera larvae” value is 3.1 μg per μl and per 10 mg of larvae.
